Data on six substances can be found in article PMC2854715, “Oxpholipin 11D: An Anti-Inflammatory Peptide That Binds Cholesterol and Oxidized Phospholipids” (PLoS ONE, 2010).

Read-outs that look alike come from different tables or passages of the source. Non-standard residues stand in square brackets, D forms with d.

The target of experiment [1] is T1, Bovine albumin (Bos taurus, UniProt P02769).
T1 construct: purchased Sigma-Aldrich
The note with it: SPR; mean ± SEM; read-out: KD ± SEM, bovine albumin (control); cited from earlier work. The text has this:
(§1) Table 3 Binding of OxP-11D and D-4F to oxidized and nonoxidized (phospho)lipids and sterols. | column: apoA-I; KD ± SEM (M) / D-4F

Experiment [2] relates to LDL-induced monocyte chemotaxis in cultured human aortic endothelial cells (HAEC). The experiment is described as follows: Monocyte chemotaxis assay (LDL-treated HAEC cultures). The class given is cell-based. The note with it: for Monocyte chemotactic activity, Inflammatory Index (II): peptide 1 µg/ml, HAEC treated with LDL 250 µg/ml 8 h, standardized to LDL, II<1 anti-inflammatory, Figure 1; for Monocyte chemotactic activity, dose response: Figure 2. The method, then: Normal human monocytes were isolated as previously described. Human aortic endothelial cells (HAEC) were isolated and maintained as previously reported. Acquisition and use of these cells was in accordance with protocols approved by the UCLA Human Research Subject Protection Committee.
(§2) As previously described, [64], HAEC cells were treated with native LDL (250 µg/ml) in the absence or presence of HDL or tested peptides for 8 h. After these cultures were washed, the medium was replaced by fresh Medium 199 and the cultures were incubated for an additional 8 h. This culture medium was collected and assayed for monocyte chemotactic activity using chambers purchased from Neuroprobe (Cabin John, MD). After monocytes were added to the upper compartment, the chamber was incubated for 60 min at 37°C and subsequently disassembled. The membrane was rinsed, air dried, fixed with 1% glutaraldehyde, stained with 0.1% crystal violet dye, and 12 standardized high power fields were examined microscopically. The number of migrated monocytes was expressed as the mean ±SD of monocytes counted. Values obtained in the absence of HDL were normalized to a value of 1.0. Normalized values >1.0 after HDL addition were considered to be pro-inflammatory, and values <1.0 as being anti-inflammatory.

For experiment [3] the following is noted: SPR, mean ± SEM, cited from earlier work.
Description: as §1

Experiment [4] concerns apoE deficient mice. The experiment is described as follows: In vivo activity in apoE deficient mice: HDL inflammatory index. The method, then:
as §2
ApoE null mice on a C57BL/6J background, originally from Jackson Laboratories (Bar Harbor, ME), were maintained in a breeding colony in the Department of Laboratory and Animal Medicine at the David Geffen School of Medicine at UCLA. The mice were maintained on a chow diet (Ralston Purina, St. Louis, MO).
Six hours later, and with continued fasting, blood was removed from the retro-orbital sinus under mild isoflurane anesthesia, and anticoagulated with heparin (2.5 U/ml). Plasma was obtained and fractionated by FPLC. HDL-containing fractions were tested in HAEC cultures for their ability to inhibit LDL-induced monocyte chemotactic activity. All procedures conformed to regulations of the UCLA Animal Research Committee. An HDL inflammatory index was determined using the standard monocyte chemotaxis assay. Indices >1 were interpreted as pro-inflammatory, and indices <1 as anti-inflammatory.

Experiment [5] concerns human RBCs. Put plainly: Inhibition of CDC-mediated hemolysis. The experiment is classed as cell-based. As to conditions: data not shown.
[6] abbreviates: read-out: KD ± SEM, 12(S)-HPETE.
Setting [7] is: read-out: KD ± SEM, 13(S)-HPODE.
Where [8] appears, read: read-out: KD ± SEM, 15(S)-HPETE.
[9] abbreviates: read-out: KD ± SEM, arachidonic acid.
Where [10] appears, read: read-out: KD ± SEM, linoleic acid.
[11] abbreviates: read-out: KD ± SEM, palmitic acid.
[12] abbreviates: peptide 0.01 µg/ml (10 ng/ml) versus 1 µg/ml.
Where [13] appears, read: peptide 0.1 µg/ml versus 1 µg/ml.

T1 sequence (P02769 25-607): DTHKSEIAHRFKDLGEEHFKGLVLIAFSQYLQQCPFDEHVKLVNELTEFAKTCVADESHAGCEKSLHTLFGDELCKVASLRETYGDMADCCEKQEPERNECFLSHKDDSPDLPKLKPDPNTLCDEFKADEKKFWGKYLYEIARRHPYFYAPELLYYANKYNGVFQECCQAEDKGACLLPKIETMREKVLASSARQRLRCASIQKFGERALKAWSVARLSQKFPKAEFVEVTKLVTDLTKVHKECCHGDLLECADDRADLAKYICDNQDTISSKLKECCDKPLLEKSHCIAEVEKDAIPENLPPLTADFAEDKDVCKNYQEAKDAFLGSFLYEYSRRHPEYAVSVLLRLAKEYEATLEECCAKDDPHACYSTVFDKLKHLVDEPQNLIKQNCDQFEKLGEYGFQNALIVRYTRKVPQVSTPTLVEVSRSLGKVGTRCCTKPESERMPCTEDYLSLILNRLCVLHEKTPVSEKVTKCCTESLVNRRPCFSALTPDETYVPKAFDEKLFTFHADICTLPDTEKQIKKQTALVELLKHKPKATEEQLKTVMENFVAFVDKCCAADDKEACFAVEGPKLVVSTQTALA

On to “Ac-DWFKAFYDKVAEKFKEAF-NH2 (Ac-[dD][dW][dF][dK][dA][dF][dY][dD][dK][dV][dA][dE][dK][dF][dK][dE][dA][dF]-NH2) [D-4F, a prominent apoA-I-mimetic peptide, Ac-…-NH2, reference compound]”, for which the Kd in experiment [1] was 3900 nM.

Regarding “Ac-DWFKAFYDKVAEKFKEAF-NH2 [D-4F, a prominent apoA-I-mimetic peptide, Ac-…-NH2, reference compound]”, in experiment [2], the “Monocyte chemotactic activity, Inflammatory Index (II)” value was “very similar activity”. In addition, the Kd in experiment [3] (read-out: KD ± SEM, 4β-hydroxycholesterol) was 31 µM; in experiment [3] (read-out: KD ± SEM, 5(S)-HPETE), 0.018 µM; in experiment [3] (read-out: KD ± SEM, 9(S)-HODE), 0.015 µM; in experiment [3] (read-out: KD ± SEM, 12(S)-HETE) it was 0.018 µM; in experiment [3] (setting [6]), 0.17 µM; in experiment [3] (read-out: KD ± SEM, 13(S)-HODE) it was 0.011 µM. Further, the Kd in experiment [3] (setting [7]) is 0.021 µM; in experiment [3] (read-out: KD ± SEM, 15(S)-HETE), 0.022 µM; in experiment [3] (setting [8]) it was 0.051 µM; in experiment [3] (read-out: KD ± SEM, 20(S)-hydroxycholesterol), 3.9 µM; in experiment [3] (read-out: KD ± SEM, 22(S)-hydroxycholesterol) it was 15 µM; in experiment [3] (read-out: KD ± SEM, 24(S)-hydroxycholesterol), 4.3 µM. For the same substance, the Kd in experiment [3] (read-out: KD ± SEM, 25-hydroxycholesterol) is 2.4 µM; in experiment [3] (read-out: KD ± SEM, KOdiA-PC), 0.00058 µM; in experiment [3] (read-out: KD ± SEM, PEIPC), 6e-05 µM; in experiment [3] (read-out: KD ± SEM, PGPC) it was 0.0063 µM; in experiment [3] (read-out: KD ± SEM, POVPC), 0.0024 µM; in experiment [3] (setting [9]), 0.012 µM. In addition, the Kd in experiment [3] (read-out: KD ± SEM, cholesterol) is 0.092 µM; in experiment [3] (setting [10]) it was 0.015 µM; in experiment [3] (setting [11]), 0.67 µM. The “HDL Inflammatory Index in vivo” value in experiment [4] (1 mg/kg subcutaneously, fasting female apoE deficient mice, HDL isolated 6 h after dose, normalized to LDL, Figure 3) is on record as “equally effective”.

As for “Aib-RE-Ctb-Val-R-Leu-Val-Trp-E-Trp-Trp-RE-Val-NH2 [OxP-13]”, the “Monocyte chemotactic activity, dose response” value in experiment [2] (setting [12]) is reported as “reduced activity substantially”; in experiment [2] (setting [13]) it was “relatively small decrease in activity”. In experiment [2], the “Monocyte chemotactic activity, Inflammatory Index (II)” value is recorded as “very similar activity”.

As to “RE-Ctb-Thr-G-Leu-Ala-Trp-E-Trp-Trp-RT-Val-NH2 [OxP-2]”, in experiment [5], the “Inhibition of CDC-mediated hemolysis” value is recorded as “enhanced the peptide's ability to inhibit CDC-mediated hemolysis”.

As to “RE-Dpa-Thr-G-Leu-Ala-Trp-E-Trp-Trp-RT-Val-NH2 [OxP-11]”, the “Monocyte chemotactic activity, dose response” value was “reduced activity substantially” in experiment [2] (setting [12]) and “relatively small decrease in activity” in experiment [2] (setting [13]). Besides, in experiment [2], the “Monocyte chemotactic activity, Inflammatory Index (II)” value is on record as “very similar activity”. In experiment [4] (lower doses 0.5 and 0.1 mg/kg subcutaneously, apoE deficient mice, Figure 3B), the “HDL Inflammatory Index in vivo” value is on record as “considerably less active than L-4F”.

In the case of apoA-I: human apoA-I, the Kd in experiment [1] was 21 nM; in experiment [3] (read-out: KD ± SEM, 5(S)-HPETE) it was 1600 ± 0.3 µM; in experiment [3] (read-out: KD ± SEM, 9(S)-HODE), 1300 ± 0.5 µM; in experiment [3] (read-out: KD ± SEM, 12(S)-HETE) it was 850 ± 0.033 µM; in experiment [3] (setting [6]) it was 820 ± 0.027 µM; in experiment [3] (read-out: KD ± SEM, 13(S)-HODE) it was 1800 ± 0.3 µM. Moreover, the Kd in experiment [3] (setting [7]) was 1200 ± 0.6 µM; in experiment [3] (read-out: KD ± SEM, 15(S)-HETE) it was 1300 ± 0.1 µM; in experiment [3] (setting [8]), 1000 ± 0.2 µM; in experiment [3] (read-out: KD ± SEM, KOdiA-PC) it was 21 µM; in experiment [3] (read-out: KD ± SEM, PEIPC) it was 51 µM; in experiment [3] (read-out: KD ± SEM, POVPC), 31 µM. The Kd was 0.01 µM in experiment [3] (setting [9]), 0.0065 µM in experiment [3] (setting [10]) and 2 µM in experiment [3] (setting [11]). In addition, the “KD ± SEM, 4β-hydroxycholesterol” value in experiment [3] is “BND”. Besides, the “KD ± SEM, 20(S)-hydroxycholesterol” value in experiment [3] is “BND”. In experiment [3], the “KD ± SEM, 22(S)-hydroxycholesterol” value is listed as “BND”. Further, the “KD ± SEM, 24(S)-hydroxycholesterol” value in experiment [3] is on record as “BND”. Further, the “KD ± SEM, 25-hydroxycholesterol” value in experiment [3] is given as “BND”. Moreover, the “KD ± SEM, cholesterol” value in experiment [3] is reported as “BND”.
